Assay results reported in patent US20230416334A1, “CELL-PENETRATING PEPTIDES” (FUNDACIÓ HOSPITAL UNIVERSITARI VALL D'HEBRON - INSTITUT DE …, priority 2020, published 2023).

B1: CD300f: whole CD300f protein, conjugated onto micelles and tested as CPP (protein, UniProt Q8TDQ1 20-290, looked up)
CMRF35-like molecule 1: TQITGPTTVNGLERGSLTVQCVYRSGWETYLKWWCRGAIWRDCKILVKTSGSEQEVKRDRVSIKDNQKNRTFTVTMEDLMKTDADTYWCGIEKTGNDLGVTVQVTIDPAPVTQEETSSSPTLTGHHLDNRHKLLKLSVLLPLIFTILLLLLVAASLLAWRMMKYQQKAAGMSPEQVLQPLEGDLCYADLTLQLAGTSPQKATTKLSSAQVDQVEVEYVTMASLPKEDISYASLTLGAEDQEPTYCNMGHLSSHLPGRGPEEPTEYSTISRP
modifications: conjugated onto micelles
notes: whole CD300f protein, conjugated onto micelles and tested as CPP

Columns and labels:
[1] = test system: binding of CD300f to plastic-immobilized SM; test: Peptide inhibition of CD300f-Ig binding to plastic-immobilized sphingomyelin (epitope mapping); parameters: species or system human; details: co-incubation of peptide with CD300f-Ig, FIG. 1
Text: FIG. 1, related to Example 1, is a bar diagram showing the binding capacity of the indicated peptides to sphingomyelin (SM). They y-axis represents absorbance (%). “C” represents the control; “1” represents Peptide 1 of SEQ ID NO: 12; “2” represents Peptide 2 of SEQ ID NO: 13; “3” represents Peptide 3 of SEQ ID NO: 14; “4” represents Peptide 4 of SEQ ID NO: 15; “5” represents Peptide 5 of SEQ ID NO: 5; “6” represents Peptide 6 of SEQ ID NO: 6; “7” represents Peptide 7 of SEQ ID NO: 7; “8” represents Peptide 8 of SEQ ID NO: 16; and “9” represents Peptide 9 of SEQ ID NO: 17; and “10” represents Peptide 10 of SEQ ID NO: 18; FIG. 2, related to Example 1, is a bar diagram showing the binding capacity of the indicated peptides to sphingomyelin (SM). They y-axis represents absorbance (%). “A” represents the control; “B” represents DMSO; “C” represents Peptide 1; “D” represents Peptide 2; “E” represents Peptide 7; “F” represents Peptide 7 C5S (SEQ ID NO: 8); “G” represents Peptide 7 W3A (SEQ ID NO: 9); and “H” represents Peptide 7 R6G (SEQ ID NO: 10). In an attempt to identify the sites of interaction of CD300f with Sphingomyelin (SM), the inventors performed a peptide-based epitope mapping approach. 24 overlapping, 20mer peptides were designed with a 15-aa overlap between successive peptides covering the Ig and stem extracellular sequences of human CD300f. It was analyzed whether any of those 24 peptides could inhibit binding of CD300f to plastic-immobilized SM. Only three of them, peptides 5 (SEQ ID NO:5), 6 (SEQ ID NO:6) and 7 (SEQ ID NO:7), which contained the sequence […] Moreover, different amino acids of the sequence […] NO: 2) were mutated to try to map the interaction with the phospholipid.

[2] = test system: HCT116 cells; test: Internalization of 5-DTAF labelled polymeric micelles by flow cytometry; type: cell-based; details: 1 mg/ml on 5-DTAF labelled Pluronic F127 micelles, vs non conjugated micelles, FIGS. 4 and 5
Text: FIG. 4, related to Example 2, is a diagram showing the cell internalization rates of polymeric micelles conjugated to the indicated peptides in HCT116 cells. The y-axis represents fluorescence intensity (F.U.) (Mean±SEM) and the x-axis represents the time (min).
FIG. 5, related to Example 2, is a diagram showing the cell internalization rates of polymeric micelles conjugated to the indicated peptides in HCT116 cells. The y-axis represents fluorescence intensity (F.U.) (Mean±SEM) and the x-axis represents the time (min).
Polymeric micelles (PM) were prepared using the film hydration technique. Briefly, the polymers were individually weighted and dissolved in a mixture of methanol:ethanol (1:1). […]
Flow cytometry was used to verify the internalization of 5-DTAF-fluorescently labeled PM in MCF-7 and HCT116 cell lines. For the quantitative fluorescence-activated cell sorting (FACS), 2×10^4 cells were seeded in complete medium in 96 well plates for 24 hours to allow adhesion. […] The plate was analyzed in a cytometer Fortessa (BD Biosciences, USA). Data was analyzed with FCS Express 4 Flow research edition software (De Novo Software, Los Angeles, USA). […] For each sample, at least 10000 individual cells were collected and the mean fluorescence intensity was evaluated. […]

Molecule | inhibition of binding of CD300f to sphingomyelin (SM) [1] | internalization of peptide- or protein-functionalized micelles [2]
LKWWCRGAIWRDCKILVKTS [Peptide 7] | inhibited binding | –
GWETYLKWWCRGAIWRDCKI [Peptide 6] | inhibited binding | –
CVYRSGWETYLKWWCRGAIW [Peptide 5] | inhibited binding | –
B1 | – | better CPPs than the ones currently available in the market
